From paper PMC12257394, “Design, Synthesis, and Biological Evaluation of Ferrocenyl–Cyclo-(Gly‑L‑Pro) Hybrids Sensitizing Multidrug-Resistant Cancer Cells to Anticancer Agents” (ACS Medicinal Chemistry Letters, 2025) come the findings set out here.

What all share (type): cell-based, human
Assay [1] relates to SW620 cells. Nature of the assay: Neutral red uptake viability assay, SW620. Particulars: 72 h, n = 3, ± SD. As for the experimental part: (§1) To evaluate this aspect, we investigated the viability of SW620 colon cancer cells and their multidrug-resistant variants (overexpressing ABCB1, ABCC1, and ABCG2) exposed to 1 and 10 μM 4a–e using a neutral red uptake assay (Table ). In general, compounds 4a–e exerted little or no cytotoxic effect on either SW620 or multidrug-resistant sublines even at 10 μM, with the remarkable exception of SW620C (cisplatin-selected variant of SW620) cells, which turned out to be relatively susceptible toward ferrocenyl 4a–c. […] This trend may reflect steric or electronic contributions to cellular uptake or interaction with intracellular targets. […] However, since E/Z isomeric data are currently available only for compound 4c, this hypothesis requires validation. To quantify this effect, IC50 values were determined (Table ). […]
(§2) The normal lung fibroblast MRC-5 and colorectal adenocarcinoma SW620 cell lines used in this experiment were purchased from American Type Culture Collection (USA) via LGC […]
(§3) Standards. Multidrug-resistant variants of SW620 cells were developed in our laboratory as described previously.10, 11 All cells were cultured under standard conditions (37°C, 5% CO2, 100% humidity) in high-glucose DMEM supplemented with GlutaMaxTM, HEPES (ThermoFisher Scientific, USA), and 10% fetal bovine serum (EURx, Poland). Cells were routinely tested for potential Mycoplasma contamination using the MycoProbe Mycoplasma Detection kit (R&D System, USA).
(§4) In total, 104 cells in 100 µL of complete medium were plated per well of a 96-well plate and left overnight to allow cells to adhere to the surface. Then, the cells were exposed to a desired concentration of tested compound(s). Stock solutions were prepared in DMSO and used immediately. The final DMSO concentration was constant and nontoxic (0.1% v/v). After 70-h incubation, neutral red was added to the final concentration of 1 mM. After another 2 h, the medium was aspirated, and cells were washed twice with PBS. Dye was released using 100 µL of a solubilizer (1% acetic acid in 50% ethanol) on an orbital shaker (10 min). Absorbance was read at 540 nm using EnVision Multilabel Plate Reader (Perkin Elmer, USA). Results were expressed as % of control. The IC50 parameters were calculated using GraphPad Prism version 10 (GraphPad Software, Boston, Massachusetts USA). […]
(§5) All experiments were performed in triplicate (n = 3).

A further assay relates to SW620D cells. Nature of the assay: Synergy determination (Bliss model, SynergyFinder), SW620D. Conditions: drug doxorubicin + additive; for synergy score: Bliss model. An excerpt:
(§6) In an ideal setting, the effect of cell exposure to a combination of a chemotherapeutic and an MDR inhibitor should be synergistic. […] The highest synergy scores identified an optimal concentration range where the combination exerted its maximal effect. […] In cisplatin-resistant SW620C cells, the low or lack of synergy observed for most compounds may be due to the additive effects of cisplatin and 4 rather than a true synergistic interaction. […]
(§7) To evaluate the potential interactions between putative ABC inhibitors and anticancer drugs, we utilized the Bliss independence model, as implemented in the SynergyFinder web application.13, 14 Synergy scores and the most synergistic area scores were calculated based on the normalized dose–response matrices. A synergy score below −10 indicates likely […]
(§8) above 10 is indicative of likely synergistic interactions.
(§9) All experiments were performed at least three times, and the data were statistically analyzed

For another assay, the system named is MRC-5 fibroblasts. Nature of the assay: Neutral red uptake viability assay, MRC-5. Conditions: for survival rate: MRC-5, 10 μM, 72 h exposure, n = 3, ± SD; for Surviwal rate of MRC-5 at 10 microM: MRC-5, 10 microM (xlsx). As for the experimental part:
as §2, §3, §4, §5

Assay [2] concerns ABCG2-overexpressing SW620Mito cells. Nature of the assay: MDR reversal assay (ERP), SW620Mito. Conditions: for ERP value, mitoxantrone + compound: SW620Mito (xlsx); for ERP = IC50(drug)MDR/IC50(drug+4)MDR: mitoxantrone, SW620Mito.
Description: We investigated the potency of 4a–e to inhibit ABC transporters (ABCB1, ABCC1, and ABCG2) by determining their enhancement of reversal potency (ERP) values. ERP represents fold changes in the IC50 values of anticancer drugs in multidrug-resistant cancer sublines (ABCB1-overexpressing SW620D, SW620E, and SW620V; ABCC1-overexpressing SW620M; ABCG2-overexpressing SW620C and SW620Mito) exposed to a combination of the investigated compounds and anticancer agents at equimolar concentrations, compared with values obtained with drugs alone (Tables S2 and S3 and Figure ).
as §3
In total, 104 cells in 100 µL of complete medium were plated per well of a 96-well plate and left overnight to allow cells to adhere to the surface. Then, the cells were exposed to a desired concentration of tested compound(s). Stock solutions were prepared in DMSO and used immediately. The final DMSO concentration was constant and nontoxic (0.1% v/v). After 70-h incubation, neutral red was added to the final concentration of 1 mM. After another 2 h, the medium was aspirated, and cells were washed twice with PBS. Dye was released using 100 µL of a solubilizer (1% acetic acid in 50% ethanol) on an orbital shaker (10 min). Absorbance was read at 540 nm using EnVision Multilabel Plate Reader (Perkin Elmer, USA). Results were expressed as % of control. The IC50 parameters were calculated using GraphPad Prism version 10 (GraphPad Software, Boston, Massachusetts USA).
The enhancement of reversal potency (ERP) value determination
For MDR reversal assays, cytotoxic agents were co-administered with compounds 4a–4e at equimolar concentrations in a range of 10 nM to 100 µM. IC₅₀ values were determined in ABCB1-overexpressing SW620 cell line variants. The enhancement of reversal potency (ERP) was calculated using the following formula: ERP = IC₅₀(drug)MDR / IC₅₀(drug + compound)MDR. All experiments were performed in triplicate (n = 3).

For assay [3], the system named is SW620E cells (etoposide-resistant). Nature of the assay: Neutral red uptake viability assay, SW620E. Particulars: 72 h, n = 3, ± SD. As for the experimental part:
as §1, §2, §3, §4, §5

Assay [4] has as its system SW620 cells. Nature of the assay: Synergy determination (Bliss model, SynergyFinder), SW620.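 Note: score below −10 means likely antagonism and −10 to 10 means additive.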
Description: as §6, §7, §8, §9

Assay [5] concerns SW620M cells (methotrexate-resistant). Nature of the assay: Neutral red uptake viability assay, SW620M. Conditions: 72 h, n = 3, ± SD. The method, then: In general, compounds 4a–e exerted little or no cytotoxic effect on either SW620 or multidrug-resistant sublines even at 10 μM, with the remarkable exception of SW620C (cisplatin-selected variant of SW620) cells, which turned out to be relatively susceptible toward ferrocenyl 4a–c. […] This trend may reflect steric or electronic contributions to cellular uptake or interaction with intracellular targets. […] However, since E/Z isomeric data are currently available only for compound 4c, this hypothesis requires validation. To quantify this effect, IC50 values were determined (Table ). […]
as §2, §3, §4, §5

The subject of the next assay is SW620Mito cells. Nature of the assay: Synergy determination (Bliss model, SynergyFinder), SW620Mito. Conditions: drug mitoxantrone + additive, SW602Mito; for synergy score: Bliss model.
Description: as §6, §7, §8, §9

Consider `O=C1N/C(=C\c2ccccc2)C(=O)N2CCC[C@@H]12` [(S,Z)-4e], for which the survival rate is 94 ± 5.4% with SW620 cells [1] (SW620, 1 μM); 92 ± 5.0% in the assay with SW620 cells [1] (SW620, 10 μM); 102 ± 6% in the assay with MRC-5 fibroblasts; 94 ± 1.9% in assay [3] (1 μM); 96 ± 4.4% in assay [3] (10 μM); 96 ± 4.8% in assay [5] (1 μM). Also, the survival rate in assay [5] (10 μM) was 95 ± 4.0%. The “most synergistic area score” value in the assay with SW620D cells and with SW620Mito cells was 0.00 in each case. Moreover, the synergy score entry is given as “–8.70” in the assay on SW620D cells and “–3.17” with SW620Mito cells. In the assay on MRC-5 fibroblasts, the “Surviwal rate of MRC-5 at 10 microM” value is on record as 102_6. Moreover, the “ERP value, mitoxantrone + compound” value in assay [2] worked out at 1.01. Also, the “ERP = IC50(drug)MDR/IC50(drug+4)MDR” value in assay [2] is given as 1.01. The “synergy score (in parentheses)” value in the assay on SW620 cells [4] (drug cisplatin + additive) was −3.94; with SW620 cells [4] (drug doxorubicin + additive), −3.90; in the assay with SW620 cells [4] (drug etoposide + additive), −3.96; in the assay on SW620 cells [4] (drug mitoxantrone + additive), 1.87.
Take `O=C1N/C(=C/c2ccccc2)C(=O)N2CCC[C@@H]12` [(S,E)-4e]: the survival rate is 96 ± 3.4% in the assay on SW620 cells [1] (SW620, 1 μM); 96 ± 2.2% in the assay on SW620 cells [1] (SW620, 10 μM); 117 ± 11% in the assay on MRC-5 fibroblasts; 96 ± 2.5% in assay [3] (1 μM); 99 ± 0.9% in assay [3] (10 μM); 93 ± 0.3% in assay [5] (1 μM). The compound further came in with a survival rate in assay [5] (10 μM) of 95 ± 3.4%. In addition, the “most synergistic area score” value in the assay with SW620D cells turned out to be 0.00; with SW620Mito cells, 4.35. The results for the synergy score result with SW620D cells and with SW620Mito cells were “–6.63” and “–0.12”, respectively. Also, the “Surviwal rate of MRC-5 at 10 microM” value with MRC-5 fibroblasts was 117_11. For the same compound, in assay [2], the “ERP value, mitoxantrone + compound” value was 0.82. Further, the “ERP = IC50(drug)MDR/IC50(drug+4)MDR” value in assay [2] was determined as 0.82. The “synergy score (in parentheses)” value is on record as −4.17 in the assay with SW620 cells [4] (drug cisplatin + additive), −4.78 in the assay on SW620 cells [4] (drug doxorubicin + additive), −1.15 in the assay on SW620 cells [4] (drug etoposide + additive) and −3.41 in the assay with SW620 cells [4] (drug mitoxantrone + additive).
